According to the supplement of paper PMC11061612:

Key:
Assay in all cases: combination Emax (second highest fraction inhibited in the dose matrix, 72 h); higher = more inhibition; extreme values may be limits of the assay
[1] = test system: Calu-3 (Lung Adenocarcinoma)
Procedure, shortened: (§1)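 Bliss excess equals the observed combination effect minus the expected value EA + EB − EA·EB, where EA and EB are the effects of each agent alone. Combination Emax is the second-highest inhibition within the matrix. Inhibition was scaled from CellTiter-Glo 2.0 luminescence, with 0 set by vehicle wells and 1 by blank wells, after 72 hours of two-drug dosing of cells plated in 1536-well plates.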

[2] = test system: CCRF-CEM (T-Lymphoblastic Leukemia)
Procedure, shortened: as §1

[3] = test system: LS-180 (Colorectal Carcinoma)
Procedure, shortened: as §1

KELLY (Neuroblastoma) = test system: KELLY (Neuroblastoma)
Procedure, shortened: as §1

[4] = test system: CaR-1 (Colorectal Carcinoma)
Procedure, shortened: as §1

[5] = test system: DoTc2-4510 (Cervical Carcinoma)
Procedure, shortened: as §1

[6] = test system: HCC-78 (Lung Adenocarcinoma)
Procedure, shortened: as §1

[7] = test system: LNCaP-Clone-FGC (Prostate Carcinoma)
Procedure, shortened: as §1

[8] = test system: NCI-H2085 (Non-Small Cell Lung Carcinoma)
Procedure, shortened: as §1

[9] = test system: HT-1376 (Bladder Carcinoma)
Procedure, shortened: as §1

[10] = test system: COLO-205 (Colorectal Carcinoma)
Procedure, shortened: as §1

[11] = test system: HuP-T4 (Pancreatic Carcinoma)
Procedure, shortened: as §1

[12] = test system: EC-GI-10 (Esophageal Squamous Cell Carcinoma)
Procedure, shortened: as §1

[13] = test system: SK-ES-1 (Ewing's Sarcoma)
Procedure, shortened: as §1

[14] = test system: HCC1806 (Breast Carcinoma)
Procedure, shortened: as §1

[15] = test system: B-CPAP (Thyroid Gland Carcinoma)
Procedure, shortened: as §1

[16] = test system: Daoy (Other Solid Carcinomas)
Procedure, shortened: as §1

[17] = test system: ME-1 (Acute Myeloid Leukemia)
Procedure, shortened: as §1

[18] = test system: UM-UC-3 (Bladder Carcinoma)
Procedure, shortened: as §1

SMILES | combination Emax [1] | combination Emax [2] | combination Emax [3] | combination Emax (KELLY (Neuroblastoma)) | combination Emax [4] | combination Emax [5] | combination Emax [6] | combination Emax [7] | combination Emax [8] | combination Emax [9] | combination Emax [10] | combination Emax [11] | combination Emax [12] | combination Emax [13] | combination Emax [14] | combination Emax [15] | combination Emax [16] | combination Emax [17] | combination Emax [18]
CN(C)CCCOc1ccc(-c2ccc3ncc4c(c3c2)n(C2CCOCC2)c(=O)n4C)cn1 [AZD0156] + C=CCn1c(=O)c2cnc(Nc3ccc(N4CCN(C)CC4)cc3)nc2n1-c1cccc(C(C)(C)O)n1 [AZD1775] (first compound max 1 µM, partner max 1 µM) | 0.0731 | 1 | 0.452 | 1 | 0.128 | 0.473 | 0.313 | 0.738 | 0.6 | 0.294 | 0.341 | 0.217 | 0.849 | 0.903 | 0.901 | 0.357 | 0.847 | 0.413 | 0.264
CN(C)CCCOc1ccc(-c2ccc3ncc4c(c3c2)n(C2CCOCC2)c(=O)n4C)cn1 [AZD0156] + CCN(CCO)CCCOc1ccc2c(Nc3cc(CC(=O)Nc4cccc(F)c4)[nH]n3)ncnc2c1 [AZD2811] (first compound max 1 µM, 7x7, partner max 1 µM) | 0.061 | 0.983 | 0.261 | 0.684 | 0.145 | 0.186 | 0.159 | 0.556 | 0.547 | 0.0989 | 0.854 | 0.244 | 0.471 | 0.952 | 0.124 | 0.189 | 0.303 | 0.2 | 0.155
CN(C)CCCOc1ccc(-c2ccc3ncc4c(c3c2)n(C2CCOCC2)c(=O)n4C)cn1 [AZD0156] + C[C@@H]1COCCN1C2=NC(=NC(=C2)C3(CC3)[S@](=N)(=O)C)C4=C5C=CNC5=NC=C4 [AZD6738] (first compound max 1 µM, 7x7, partner max 10 µM) | 0.297 | 0.99 | 0.694 | 0.987 | 0.435 | 0.811 | 0.613 | 0.737 | 0.824 | 0.655 | 0.247 | 0.46 | 0.724 | 0.855 | 0.937 | 0.479 | 0.848 | 0.394 | 0.475
C=CCn1c(=O)c2cnc(Nc3ccc(N4CCN(C)CC4)cc3)nc2n1-c1cccc(C(C)(C)O)n1 [AZD1775] + C[C@@H]1COCCN1C2=NC(=NC(=C2)C3(CC3)[S@](=N)(=O)C)C4=C5C=CNC5=NC=C4 [AZD6738] (first compound max 1 µM, partner max 10 µM) | 0.301 | 1 | 0.809 | 1 | 0.525 | 0.751 | 0.756 | 0.787 | 0.912 | 0.67 | 0.863 | 0.521 | 0.943 | 0.926 | 0.961 | 0.811 | 0.944 | 0.51 | 0.682
C=CCn1c(=O)c2cnc(Nc3ccc(N4CCN(C)CC4)cc3)nc2n1-c1cccc(C(C)(C)O)n1 [AZD1775] + O=C(c1cc(Cc2n[nH]c(=O)c3ccccc23)ccc1F)N1CCN(C(=O)C2CC2)CC1 [Olaparib] (first compound max 1 µM, partner max 10 µM) | 0.173 | 1 | 0.574 | 0.988 | 0.257 | 0.458 | 0.377 | 0.77 | 0.566 | 0.425 | 0.336 | 0.251 | 0.831 | 0.954 | 0.836 | 0.456 | 0.882 | 0.455 | 0.326
CCN(CCO)CCCOc1ccc2c(Nc3cc(CC(=O)Nc4cccc(F)c4)[nH]n3)ncnc2c1 [AZD2811] + C=CCn1c(=O)c2cnc(Nc3ccc(N4CCN(C)CC4)cc3)nc2n1-c1cccc(C(C)(C)O)n1 [AZD1775] (first compound max 1 µM, partner max 1 µM) | 0.0931 | 1 | 0.42 | 1 | 0.223 | 0.534 | 0.327 | 0.699 | 0.688 | 0.333 | 0.854 | 0.27 | 0.849 | 0.971 | 0.867 | 0.334 | 0.827 | 0.299 | 0.258
CCN(CCO)CCCOc1ccc2c(Nc3cc(CC(=O)Nc4cccc(F)c4)[nH]n3)ncnc2c1 [AZD2811] + C[C@@H]1COCCN1C2=NC(=NC(=C2)C3(CC3)[S@](=N)(=O)C)C4=C5C=CNC5=NC=C4 [AZD6738] (first compound max 1 µM, 7x7, partner max 10 µM) | 0.217 | 1 | 0.754 | 0.992 | 0.469 | 0.675 | 0.595 | 0.736 | 0.844 | 0.54 | 0.849 | 0.424 | 0.824 | 0.968 | 0.931 | 0.407 | 0.798 | 0.516 | 0.429
CCN(CCO)CCCOc1ccc2c(Nc3cc(CC(=O)Nc4cccc(F)c4)[nH]n3)ncnc2c1 [AZD2811] + O=C(c1cc(Cc2n[nH]c(=O)c3ccccc23)ccc1F)N1CCN(C(=O)C2CC2)CC1 [Olaparib] (first compound max 1 µM, 7x7, partner max 10 µM) | 0.153 | 1 | 0.36 | 0.788 | 0.19 | 0.297 | 0.206 | 0.495 | 0.62 | 0.218 | 0.868 | 0.289 | 0.551 | 0.954 | 0.265 | 0.231 | 0.454 | 0.394 | 0.305
C[C@@H]1COCCN1c1cc(C2([S@](C)(=N)=O)CC2)nc(-c2ccnc3[nH]ccc23)n1 [AZD6738] + O=C(c1cc(Cc2n[nH]c(=O)c3ccccc23)ccc1F)N1CCN(C(=O)C2CC2)CC1 [Olaparib] (first compound max 10 µM, 7x7, partner max 10 µM) | 0.193 | 1 | 0.733 | 0.897 | 0.441 | 0.7 | 0.638 | 0.73 | 0.43 | 0.456 | 0.301 | 0.331 | 0.747 | 0.933 | 0.89 | 0.498 | 0.867 | 0.538 | 0.584
Cc1cc2ncnn2cc1Nc1ncc2c(n1)n(C1CCOCC1)c(=O)n2C [AZD7648] + C=CCn1c(=O)c2cnc(Nc3ccc(N4CCN(C)CC4)cc3)nc2n1-c1cccc(C(C)(C)O)n1 [AZD1775] (first compound max 10 µM, partner max 1 µM) | 0.242 | 1 | 0.5 | 0.993 | 0.551 | 0.531 | 0.432 | 0.775 | 0.512 | 0.408 | 0.678 | 0.288 | 0.78 | 0.946 | 0.894 | 0.479 | 0.869 | 0.355 | 0.287
Cc1cc2ncnn2cc1Nc1ncc2c(n1)n(C1CCOCC1)c(=O)n2C [AZD7648] + CCN(CCO)CCCOc1ccc2c(Nc3cc(CC(=O)Nc4cccc(F)c4)[nH]n3)ncnc2c1 [AZD2811] (first compound max 10 µM, 7x7, partner max 1 µM) | 0.235 | 1 | 0.388 | 0.692 | 0.472 | 0.301 | 0.342 | 0.535 | 0.717 | 0.235 | 0.897 | 0.342 | 0.44 | 0.964 | 0.281 | 0.283 | 0.445 | 0.27 | 0.298
Cc1cc2ncnn2cc1Nc1ncc2c(n1)n(C1CCOCC1)c(=O)n2C [AZD7648] + CN(C)CCCOc1ccc(-c2ccc3ncc4c(c3c2)n(C2CCOCC2)c(=O)n4C)cn1 [AZD0156] (first compound max 10 µM, 7x7, partner max 1 µM) | 0.215 | 0.521 | 0.358 | 0.878 | 0.266 | 0.26 | 0.263 | 0.546 | 0.234 | 0.2 | 0.39 | 0.261 | 0.161 | 0.503 | 0.271 | 0.286 | 0.313 | 0.213 | 0.236
CS(=O)(=O)CCNCc1ccc(-c2ccc3ncnc(Nc4ccc(OCc5cccc(F)c5)c(Cl)c4)c3c2)o1 [Lapatinib] + NC1(c2ccc(-c3nc4ccn5c(=O)[nH]nc5c4cc3-c3ccccc3)cc2)CCC1 [MK-2206] (first compound max 10 µM, 7x7, partner max 10 µM) | 0.954 | 0.892 | 0.795 | 0.959 | 0.779 | 0.888 | 0.264 |  | 0.587 | 0.177 |  |  |  |  | 0.954 | 0.909 |  | 0.301 | 0.253
CCc1c2c(nc3ccc(O)cc13)-c1cc3c(c(=O)n1C2)COC(=O)[C@]3(O)CC [SN-38] + O=C(c1cc(Cc2n[nH]c(=O)c3ccccc23)ccc1F)N1CCN(C(=O)C2CC2)CC1 [Olaparib] (first compound max 0.3 µM, 7x7, partner max 10 µM) | 0.398 | 1 | 0.748 | 0.884 | 0.912 | 0.988 | 0.898 |  | 0.132 | 0.0829 | 0.618 | 0.948 |  | 1 | 0.974 | 0.946 | 0.971 | 0.497 | 0.985
